According to patent US7915238B2, “Immunomodulatory compounds and methods of use thereof” (Eisai R & D Management Co., Ltd., priority 1999, dated 2011):
Where “and” joins values, the source holds several entries; their conditions need not be identical. Equal entries are not always repeated.

B1: GM-CSF: murine GM-CSF, a cytokine used in cancer vaccine trials to boost immune response (protein, UniProt P01587 18-141, looked up)
Granulocyte-macrophage …: APTRSPITVTRPWKHVEAIKEALNLLDDMPVTLNEEVEVVSNEFSFKKLTCVQTRLKIFEQGLRGNFTKLKGALNMTASYYQTYCPPTPETDCETQVTTYADFIDSLKTFLTDIPFECKKPGQK

How the values were obtained:
normal mouse splenocytes = assay: Cytokine release from murine splenocytes; assay type: cell-based, C57BL6 mice; details: 24 hours culture with test compound
Description: The ability of compounds to stimulate cytokine release from splenocytes can be assessed in a mouse model. Spleen cells harvested from C57BL6 mice are cultured for 24 hours in RPMI 1640 cell culture medium containing 5% FBS, 1 mM sodium pyruvate, 2 mM L-glutamine, 100 U/ml penicillin/streptomycin and 50 μM beta-mercaptoethanol, various concentrations of test compound for 20-24 hours, after which the cell culture supernatant is tested for the presence of cytokines.
Spleen cells harvested from mice were cultured for 24 house with test compound and the supernatant was tested for release of cytokines.

THP-1 cells = assay: TNF-alpha promoter secreted alkaline phosphatase (TNF-PLAP) reporter in THP-1 cells; assay type: cell-based, human; details: absence and presence of 10% serum; FIG. 3
Description: Similar results can be obtained when compounds of the invention are tested in a cell-culture model. In this assay, compounds of the invention are tested for their ability to stimulate secretion of alkaline phosphatase from THP-1 cells that have been transfected with the gene for secreted alkaline phosphatase under the control of the TNF-alpha promoter, as described in detail in Goto et al., Molecular Pharmacology 49; 860-873 (1996). In this assay, however, the effects of removing serum^1—a condition that may more-likely mimic a subcutaneous environment—can be evaluated. As shown in FIG. 2 and described in Table 1, results from these assays indicate that compounds of the invention stimulate induction of genes under the control of the TNF-alpha promoter when added to cells in the absence as well as the presence of serum. ^1 This is important to determine if serum components such as lipopolysaccharide binding protein are necessary for drug activity.

[1] = tested on: mouse macrophage line RAW 264.7; assay: Tolerization to TLR family ligands, TNF-alpha release; assay type: cell-based; details: pretreated 24 hours at 0.1 μg/mL
Description: Cells of the mouse macrophage line RAW 264.7 were plated in RPMI 1640 complete culture medium (10% fetal bovine serum, 1 mM sodium pyruvate, 2 mM L-glutamine, 100 U/mL penicillin/streptomycin and 50 μM β-mercaptoethanol). Cells were treated for 24 hours with the TLR4 ligand ER-803022 at 0.1 μg/mL by addition of a concentrated stock solution. Negative control cells were treated with an equivalent volume of PBS. After 24 hours, cells were washed twice in RPMI 1640 complete medium and incubated in medium alone for 3 hours. Cultures were then restimulated with the following synthetic TLR ligands: lipopeptide (S-lipo, a ligand for TLR2) at 0.1 μg/mL, ER-803022 at 0.1 μg/mL, a mouse CpG oligonucleotide of the sequence […] (a ligand of murine TLR9) at 0.5 μg/mL, or PBS. Supernatants were taken at 3 and 4 hours and cytokine levels were determined by ELISA.

EGFRvIII peptide = assay: EGFRvIII peptide-specific antibody titers after immunization (ELISA); assay type: in vivo, C57/BL6J mice; details: s.c. with 25 μg peptide-KLH, 804057 3 μg, GM-CSF 5 μg
Description: To determine whether an adjuvant can enhance the effect of an oncology antigen (i.e., an antigen that can be used to vaccinate a subject individual against a cancer), C57/BL6J mice were immunized subcutaneously with a tumor-associated peptide, LEEKKGNYVVTDHC (SEQ ID NO:2) (derived from a mutant form of EGFR, […]) conjugated to the protein carrier keyhole limpet hemocyanin (KLH), with or without Compound 804057 or murine GM-CSF, a cytokine used in cancer vaccine trials to boost immune response. Compound 804057 was dosed at 3 μg, GM-CSF at 5 μg and the peptide-KLH conjugate at 25 μg per dose. Mice were immunized three times at intervals of three weeks. Serum was prepared from mice two weeks after each immunization and tested for […] peptide-specific antibodies using ELISA on plates coated with EGFRvIII peptide conjugated to bovine serum albumin. The results in Table 3 are presented as titers from individual animals. The titer is defined as the last serum dilution at which a signal at 0.25 OD units above background was observed.

[2] = titer = last serum dilution 0.25 OD above background

| Molecule | IL-10 release from splenocytes (normal mouse splenocytes) | interferon-gamma release from splenocytes (normal mouse splenocytes) | stimulation of alkaline phosphatase expression from TNF promoter reporter (TNF-PLAP) (THP-1 cells) | also measured |
| --- | --- | --- | --- | --- |
| CCCCCC/C=C\CCCC(=O)O[C@H](CCCCCCC)CCOCC(COP(=O)([O-])OCCNC(=O)CCCCCCCCC(=O)NCCOP(=O)([O-])OCC(COCC[C@@H](CCCCCCC)OC(=O)CCC/C=C\CCCCCC)NC(=O)CC(=O)CCCCCCCCCCC)NC(=O)CC(=O)CCCCCCCCCCC.[Na+].[Na+] (some centres unmarked) [ER 111231] | stimulated | stimulated |  |  |
| CCCCCC/C=C\CCCC(=O)O[C@H](CCCCCCC)CCOCC(COP(=O)([O-])OCCNC(=O)NCCOP(=O)([O-])OCC(COCC[C@@H](CCCCCCC)OC(=O)CCC/C=C\CCCCCC)NC(=O)CC(=O)CCCCCCCCCCC)NC(=O)CC(=O)CCCCCCCCCCC.[Na+].[Na+] (some centres unmarked) [ER 111232] | stimulated | stimulated | stimulation of alkaline phosphatase expression |  |
| CCCCCCCCCCCC(=O)CC(=O)NC(COCC[C@@H](CCCCCCC)OC(=O)CCCCCCCCCCC)COP(=O)([O-])OCCNC(=O)NCCOP(=O)([O-])OCC(COCC[C@@H](CCCCCCC)OC(=O)CCCCCCCCCCC)NC(=O)CC(=O)CCCCCCCCCCC.[Na+].[Na+] (some centres unmarked) [ER 112066] | stimulation of IL-10 release | stimulation of interferon-gamma release | stimulation of alkaline phosphatase expression |  |
| CCCCCC/C=C\CCCC(=O)O[C@H](CCCCCCC)CCOCC(COP(=O)([O-])OCCNC(=O)CC(=O)NCCOP(=O)([O-])OCC(COCC[C@@H](CCCCCCC)OC(=O)CCC/C=C\CCCCCC)NC(=O)CC(=O)CCCCCCCCCCC)NC(=O)CC(=O)CCCCCCCCCCC.[Na+].[Na+] (some centres unmarked) [ER 113651] | stimulated | stimulated |  |  |
| CCCCCCCCCCCCCC(=O)N[C@H](COCC[C@@H](CCCCCCC)OC(=O)CCCCCCCCCCC)COP(=O)([O-])OCCNC(=O)NCCOP(=O)([O-])OC[C@@H](COCC[C@@H](CCCCCCC)OC(=O)CCCCCCCCCCC)NC(=O)CCCCCCCCCCCCC.[Na+].[Na+] [ER 803022] |  |  |  | TNF-alpha release in response to CpG oligonucleotide, a TLR9 ligand ([1]; restimulated with CpG 0.5 μg/mL): diminished release of TNF-alpha; TNF-alpha release upon subsequent exposure to ER803022 (TLR4 ligand) ([1]; restimulated with ER-803022 0.1 μg/mL, vs not pretreated): released less TNF-alpha; TNF-alpha release in response to TLR2 ligand S-lipoprotein ([1]; restimulated with S-lipo 0.1 μg/mL): diminished release of TNF-alpha |
| B1 |  |  |  | Geometric mean titer, IgG1 (EGFRvIII peptide): 24000; Geometric mean titer, IgG2a (EGFRvIII peptide): 3568; Antibody titers to EGFRvIII peptide, IgG1, individual animals (EGFRvIII peptide; [2]): 12000 (3×) and 24000 (2×) and 48000 (3×); Antibody titers to EGFRvIII peptide, IgG2a, individual animals (EGFRvIII peptide; [2]): 3000 (2×) and 6000 (3×) and 24000 and 750 (2×) |
